Values of other authors in US20170368150A1, “METHODS OF TREATING PULMONARY SARCOIDOSIS” (GOTHAM BIOPHARMACEUTICALS, INC., priority 2014, published 2017).

Assays:
[1] = test system: people with uveal sarcoidosis; conditions: in vivo
[2] = test system: persons with pulmonary sarcoidosis; conditions: clinical trials
[3] = test system: sarcoidosis patients; conditions: human, in vivo

Substance	efficacy in pulmonary sarcoidosis [2]	also measured
Etanercept		efficacy in uveal sarcoidosis [1]: failed to demonstrate any significant efficacy
Infliximab	some success	
Adalimumab		fraction of sarcoidosis patients with beneficial response [3]: about half
golimumab	failed to show any benefit	
